PubChem BioAssay AID602464 (Sanford-Burnham Center for Chemical Genomics, 2012)
Active and inactive are the calls of the source. Cut-off read from the data, not from the text of the source: active = IC50 below about 20 µM; inactive = the rest.

What follows are compounds tested on Gli-responsive luciferase reporter cells, SUFU pathway antagonism (assay: Gli-SUFU pathway antagonists, dose response, cell-based, luciferase luminescence, uHTS hits (AID 602464)).
Work on `COc1ccccc1-n1c(-c2ccccc2)c[n+]2c1CCc1ccccc1-2` yielded an IC50 of 3.63 µM. `CC1=CC(C)C2(COC(c3ccc[n+](C)c3)OC2)C(C)C1` (configuration not stated) showed an IC50 of 17.9 µM. Work on `C=CCn1c(O)c(N=NC(=S)Nc2cccc(C)c2)c2ccccc21` yielded an IC50 of 8.58 µM. `COC(=O)C1=C(c2cc3ccccc3o2)C[C@@H]2CC[C@H]1N2C(=O)N1CCC(C)CC1` gave an IC50 of 16.3 µM. For `CC(C)(C)[C@H]1COC(=O)[C@H](NC(=O)OCC2c3ccccc3-c3ccccc32)C/C=C\C[C@@H](CC(=O)N[C@@H](CO)Cc2ccccc2)C(=O)N1`, the IC50 was 11.9 µM. Compound `CC(Sc1nc2ccccc2c(=O)n1C)C(=O)NC1CCCCC1C` (configuration not stated) has an IC50 of 11.5 µM. Work on `COc1cccc2nc3c(C(=O)NCCN(C)C)cccc3cc12` yielded an IC50 of 3.02 µM. For `Cc1cc(N/N=C/c2ccc(O)cc2O)nc(-n2nc(C)cc2C)n1`, the IC50 was 7.17 µM. In the case of `Clc1ccc(-n2cc(-c3ccc(Br)cc3)[n+]3c2CCCCC3)cc1`, the IC50 is reported as 7.04 µM. In the case of `C=CCOc1nc2c(c(=O)n(C)c(=O)n2C)n1Cc1ccc(Cl)cc1`, the IC50 is reported as 7.97 µM. With `COc1ccc(C(=O)C[n+]2cc(-c3ccc(OC)cc3)n3c2CCCC3)cc1` the IC50 was 6.41 µM. With `CCOc1ccc(NS(=O)(=O)c2cccc(C(=O)N3CCN(C/C=C/c4ccccc4)CC3)c2)cc1` the IC50 was > 20 µM (inactive). `CCOC(=O)c1ccc(NC(=O)Cn2cnc3cc(C)c(C)cc32)cc1` showed an IC50 of 2.75 µM. For `COc1ccc(-c2c[n+](CC(=O)c3ccccc3)c3n2CCCCC3)cc1`, the IC50 was 14.1 µM. `Cc1nc2ccccc2n1CC(=O)NC(C)C1CC2CCC1C2` (configuration not stated) was tested, and the IC50 was 7.93 µM. With `O=C(N[C@H]1C/C=C\C[C@@H](CC(=O)N(CCO)Cc2ccccc2)C(=O)NC[C@H](c2ccccc2)OC1=O)OCC1c2ccccc2-c2ccccc21` the IC50 was 7.18 µM. Compound `CN1/C(=C\C=N\NC(=O)c2ccc(O)cc2)C(C)(C)c2ccccc21` has an IC50 of 4.34 µM. In the case of `CCN1C(=O)CCN(C2CCCC2)c2nc(Nc3ccc(C(=O)NC4CCN(C)CC4)cc3OC)ncc21`, the IC50 is reported as 3.45 µM. `CCCc1nc(SCC(=O)Nc2nnc(CC)s2)c2c(=O)n(C)c(=O)n(C)c2n1` was tested, and the IC50 was 8.48 µM. In the case of `Cc1nc2ncccn2c1-c1csc(Nc2ccc(O)cc2)n1`, the IC50 is reported as 4.37 µM. With `Cc1cc(C)nc(/N=C(\N)Nc2ccccc2-c2ccccc2)n1` the IC50 was 12.8 µM. `O=C(N/N=C/c1cc2ccccc2nc1Cl)[C@H]1C[C@@H]1c1ccccc1` gave an IC50 of 16.4 µM. `CCCCCCCN1C2=NCCCN2c2ccccc21` was tested, and the IC50 was 11.4 µM. `C[n+]1c2n(c3ccccc31)N=C(c1ccccc1)CS2` gave an IC50 of 6.49 µM. Compound `CC(C)(C)OC(=O)NCCCCCc1cn(CC(=O)NCCCCCCCCCCC(=O)N2CCN(C(=O)OC(C)(C)C)CC2)nn1` has an IC50 of 2.93 µM. `O=C(NCCc1cccc(Cl)c1)c1ccc(OC2CCN(Cc3ccccn3)CC2)cc1` showed an IC50 of 7.72 µM. With `CC(=O)c1cn(CCOc2ccccc2C)c2ccccc12` the IC50 was 8.58 µM. With `O=C(Cc1csc(Nc2nc(=S)[nH]c3ccccc23)n1)NCCCN1CCN(c2ccccc2F)CC1` the IC50 was > 20 µM (inactive). With `COCCOc1nc2c(c(=O)n(C)c(=O)n2C)n1Cc1cccc(OC)c1` the IC50 was 9.46 µM. Compound `COc1cc2c(c(OC)c1OC)-c1ccc(N(C)CC(OC)OC)c(=O)cc1[C@@H](NC(C)=O)CC2` has an IC50 of 7.37 µM. `CC(C)Cn1c(N)c(C(=O)COC(=O)C2Cc3ccccc3CN2S(C)(=O)=O)c(=O)n(C)c1=O` (configuration not stated) was tested, and the IC50 was > 20 µM (inactive). For `COc1ccccc1N1CCN(c2ncc(C(=O)N3CCN(c4cccc(Cl)c4)CC3)c3ccccc23)CC1`, the IC50 was 6.18 µM. Compound `CCN(CC)S(=O)(=O)c1ccc(S(=O)(=O)Nc2c(C)nn(C)c2C)cc1` has an IC50 of 6.15 µM. For `CCC(CC)CN1C(N(C)C)=NC[C@@H]1CC(C)C`, the IC50 was 8.27 µM. For `C#CC[N+](C)(C)CCCCCCCCCCCC`, the IC50 was 2.51 µM. With `O=C(COC(=O)c1ccc2[nH]c3c(c2c1)CCCC3)Nc1ccccc1Cl` the IC50 was > 20 µM (inactive). For `CCN(CC)S(=O)(=O)c1ccc(S(=O)(=O)N2CCCC(C(=O)NC3CC3)C2)cc1` (configuration not stated), the IC50 was 7.52 µM. Work on `CC1CCN(c2c(NCc3ccc(C(=O)N4c5ccccc5CC4C)cc3)c(=O)c2=O)CC1` (configuration not stated) yielded an IC50 of 5.18 µM. With `COc1ccc(CN(C)Cc2nc(Cc3cccc(F)c3)no2)c2cccnc12` the IC50 was 5.96 µM. For `Brc1ccc(-[n+]2c(-c3ccccc3)cc(-c3ccccc3)cc2-c2ccccc2)cc1`, the IC50 was 4.82 µM. Compound `O=C(Nc1ccccc1)C1=C[C@@H](C2CCCCC2)C[C@@H](OCCCCO)O1` has an IC50 of 1.96 µM. `CC(=O)c1ccc(N2CCN(c3ccc(C(F)(F)F)cn3)CC2)cc1` was tested, and the IC50 was 8.99 µM. With `Cc1nc2ccccc2c2oc(C(=O)N3CCN(C4CCCCC4)CC3)cc12` the IC50 was 18.7 µM. `CCN(CC)S(=O)(=O)c1ccc(C)c(NC(=S)N2CCN(Cc3ccc4c(c3)OCO4)CC2)c1` showed an IC50 of 12.2 µM. Work on `CCCN1CCC(=O)N([C@H](CSc2ccc(OC)cc2)Cc2ccccc2)CC1` yielded an IC50 of 9.77 µM. With `O=C(Cn1c(-c2ccccc2)c[n+]2ccsc12)c1ccc(Br)cc1` the IC50 was > 20 µM (inactive). Work on `CC1C(OC(=O)CCC(=O)NC(C)(C)CO)O[C@H]2OC3(C)CC[C@H]4[C@H](C)CCC1C24OO3` (some centres not stated) yielded an IC50 of 0.368 µM. `Cc1ccc(S(=O)(=O)N2CCN(C(=O)C3CCN(c4ncnc5sc(C)c(C)c45)CC3)CC2)c(C)c1` gave an IC50 of 7.57 µM. `CC(C)n1c(-c2ccco2)csc1=Nc1cccnc1` was tested, and the IC50 was 8.01 µM. In the case of `Cc1ccc(C)c(N2CC(O)(c3cccs3)[N+]3=C2CCCC3)c1` (configuration not stated), the IC50 is reported as 10.4 µM. `CC(=O)N1c2ccc(S(=O)(=O)N3CCC(C(=O)N4CCCCC4)CC3)cc2CC1C` (configuration not stated) was tested, and the IC50 was 16.9 µM. `CCCCCCCOc1ccc(OC(=O)c2cccnc2)cc1` showed an IC50 of 1.06 µM. Work on `CCOC(=O)CSc1c(-c2cccs2)[nH]c2ccccc12` yielded an IC50 of 3.69 µM. For `COc1ccc(OC)c(Cc2cnc3nc(N)nc(N)c3c2C)c1`, the IC50 was 2.8 µM. For `Cc1ccc(C)c(-c2csc(NC(=O)C3=COCCO3)n2)c1`, the IC50 was 6.31 µM. In the case of `CCN(CC)C(=O)c1ccc(S(=O)(=O)N2CCC(c3nc4ccccc4s3)CC2)cc1`, the IC50 is reported as 8.85 µM. `CC(C)(C)C1CCC(OC(=O)C[N+]2(C)CCCCC2)CC1` (configuration not stated) was tested, and the IC50 was > 20 µM (inactive). With `c1ccc(Cn2c(-c3ccccc3)c[n+]3c2SCCC3)cc1` the IC50 was 6.59 µM. Compound `CCC(C)[C@H]1CN=C(N)N1CCc1cccc2ccccc12` (some centres not stated) has an IC50 of 6.63 µM. `Cc1ccc(NCC(=O)Nc2cccc(S(=O)(=O)N(C)C)c2)cc1S(=O)(=O)N1CCCCCC1` was tested, and the IC50 was 14.5 µM. With `C[C@@H]1COC(=O)[C@@H](NC(=O)OCC2c3ccccc3-c3ccccc32)C/C=C\C[C@@H](CC(=O)N(CCO)Cc2ccccc2)C(=O)N1` the IC50 was > 20 µM (inactive). `COc1ccc(NC(=S)N2CCC(Cc3ccccc3)CC2)cc1` was tested, and the IC50 was 16.6 µM. Compound `Cc1c(C(C)C)c(=O)n(-c2ccc(S(=O)(=O)NCc3ccccc3)cc2)n1C` has an IC50 of 3.84 µM. `Cc1cc(-c2ccccc2)cc(-c2ccccc2)[n+]1C` gave an IC50 of 4.46 µM. Work on `CN(Cc1nccs1)C(=O)c1cc(COc2cccc3cnccc23)on1` yielded an IC50 of 12 µM. In the case of `O=C(C1CCCCC1)N1CCN(c2ccnc3cc(Cl)ccc23)CC1`, the IC50 is reported as 4.29 µM. For `FC(F)Oc1ccc(-n2cc(-c3ccccc3)[n+]3c2CCCCC3)cc1`, the IC50 was 8.14 µM. For `CC(C)Cc1ccc(C(C)C(=O)Nc2cccnc2)cc1` (configuration not stated), the IC50 was 13 µM. For `O=C(C[C@@H]1C/C=C\C[C@@H](NC(=O)OCC2c3ccccc3-c3ccccc32)C(=O)OC[C@@H](Cc2ccccc2)NC1=O)NCCO`, the IC50 was 10 µM. Work on `Cc1nn(Cc2noc(C(=O)NC3CCC(C)CC3)n2)c(C)c1Br` (configuration not stated) yielded an IC50 of 8.59 µM. `C=CCNc1nc2c(c(=O)n(C)c(=O)n2C)n1Cc1ccc(F)cc1` showed an IC50 of 6.15 µM. Compound `S=C(Nc1ccccc1)N1CCC(Cc2ccccc2)CC1` has an IC50 of 5.67 µM. `N=c1c(-c2nc3ccccc3[nH]2)cc(C(=O)c2ccco2)nn1-c1ccccc1` was tested, and the IC50 was > 20 µM (inactive). In the case of `CCCn1c(SCC(=O)Nc2nc(-c3ccc(OC)cc3)cs2)nc2c1c(=O)n(C)c(=O)n2C`, the IC50 is reported as > 20 µM (inactive). `CCOC(=O)c1sc2nc(CC(=O)OC)nc(NCc3ccc(Cl)cc3)c2c1C` gave an IC50 of 9.23 µM. In the case of `COc1ccc(CNc2cc(C)nc3ncnn23)c(OC)c1`, the IC50 is reported as 10.6 µM. Work on `CC1CCC(NC(=O)c2cccc(S(=O)(=O)N3CCN(c4ccccc4)CC3)c2)CC1` (configuration not stated) yielded an IC50 of 9.93 µM. `Cc1cc(NC(=O)CSc2nc3c([nH]c4ccccc43)c(=O)n2-c2ccccc2F)no1` was tested, and the IC50 was 13.8 µM. `CCOc1ccc(S(=O)(=O)NCc2ccncc2)cc1NC(=O)c1ccccc1` was tested, and the IC50 was 0.94 µM. `O=C(N[C@@H]1C/C=C\C[C@@H](CC(=O)N(CCO)Cc2ccccc2)C(=O)NC[C@H](c2ccccc2)OC1=O)OCC1c2ccccc2-c2ccccc21` gave an IC50 of 8.39 µM. For `CCOc1ccc(-c2nc(CSCC(=O)NC3CC3)c(C)o2)cc1`, the IC50 was 0.377 µM. `Cc1cc(C)c[n+](C(C)C(=O)c2ccc(-c3ccccc3)cc2)c1` (configuration not stated) gave an IC50 of 5.92 µM. `COc1ccccc1-c1c(-c2ccc(O)cc2O)n[nH]c1C(F)(F)F` was tested, and the IC50 was 4.86 µM. `C[n+]1c2n(c3ccccc31)N=C(c1ccc(-c3ccccc3)cc1)CS2` gave an IC50 of 1.32 µM. With `O=C(c1cc2nc(-c3ccc(F)cc3)cc(C(F)(F)F)n2n1)N1CCCCC1c1cccnc1` (configuration not stated) the IC50 was > 20 µM (inactive). For `COc1ccc(CNc2ncnc3c2[nH]c2ccccc23)cc1`, the IC50 was 2.79 µM. Compound `COc1cccc(CN(C)C(=O)c2cc(COc3ccc4ncccc4c3)on2)c1` has an IC50 of 5.39 µM. For `COc1ccc(NS(=O)(=O)c2ccc(N3CCCCC3)c(N)c2)cc1`, the IC50 was 5.14 µM. With `COc1ccc(C(C(=O)NC2CCCCC2)N(C(=O)CCl)c2ccc(Cl)cc2)cc1` (configuration not stated) the IC50 was 4.5 µM. `O=C(NC1CCCC1)c1cc(COc2ccc3ncccc3c2)on1` was tested, and the IC50 was 5.18 µM. In the case of `COc1ccc2c(c1)c(C)cc[n+]2Cc1ccccc1`, the IC50 is reported as 3.86 µM. Work on `CCCc1c(CC)c(=N)c2ccccc2n1C` yielded an IC50 of 12.9 µM. `CC(=O)c1c(C)[nH]c(C(=O)OCC(=O)Nc2ccc(C)cc2[N+](=O)[O-])c1C` showed an IC50 of 0.535 µM. For `COCCn1c(CN2CCC(Cc3ccccc3)CC2)nc2c1c(=O)n(C)c(=O)n2C`, the IC50 was 4.08 µM. `FC(F)(F)c1ccc(N2CCN(c3cc(-c4ccccc4)nc4ncnn34)CC2)nc1` gave an IC50 of 3.6 µM. For `CCCCOC(=O)c1[nH]c2c(c1C)C(=O)CC(c1cc(OC)c(OC)c(OC)c1)C2` (configuration not stated), the IC50 was 2.22 µM. In the case of `Cc1sc2ncnc(N3CCN(S(=O)(=O)c4ccc(C(C)(C)C)cc4)CC3)c2c1C`, the IC50 is reported as 5.43 µM. For `O=C(C[C@H]1C/C=C\C[C@H](NC(=O)OCC2c3ccccc3-c3ccccc32)C(=O)OC[C@@H]2CCCN2C1=O)N[C@H](CO)Cc1ccccc1`, the IC50 was > 20 µM (inactive). With `CN(CCOc1ccc(Cl)cc1)C(=O)c1cccc(S(=O)(=O)N2CCN(c3ccc(F)cc3)CC2)c1` the IC50 was 5.59 µM. With `CCCCOc1ccc(N2C(N)=NC(N)=NC23CCCCC3)cc1` the IC50 was 17.1 µM. Compound `CCn1c(=NC(=O)CCS(=O)(=O)c2ccccc2)sc2cccc(OC)c21` has an IC50 of 3.11 µM. `CCOc1ccc(OCc2ccc(C(=O)NN=Cc3ccc[nH]3)cc2)cc1` was tested, and the IC50 was 2.44 µM.
